The source made the active and inactive calls. How the calls were made is not given here.
Tested on: CCRIS mutagenicity, Ames/micronucleus/aberration tests
Experiment: CCRIS mutagenicity studies
[1] = Test System: AMES SALMONELLA TYPHIMURIUM, Strain/Indicator: TA98, Metabolic Activation: NONE, Method: PREINCUBATION
[2] = Test System: AMES SALMONELLA TYPHIMURIUM, Strain/Indicator: TA100, Metabolic Activation: NONE, Method: PREINCUBATION
[3] = Test System: AMES SALMONELLA TYPHIMURIUM, Strain/Indicator: TA1535, Metabolic Activation: NONE, Method: PREINCUBATION

Measured: mutagenic call

O=C(O)c1ccccc1C(=O)O
inactive: End Point: In vitro chromosomal aberrations, Test System: Chinese hamster ovary (CHO) cells, Metabolic Activation: None inactive; negative | End Point: In vitro chromosomal aberrations, Test System: Chinese hamster ovary (CHO) cells, Metabolic Activation: Rat, liver, S-9, Aroclor 1254, 10% inactive; negative | End Point: In vivo micronucleus, Test System: Bone marrow polychromatic erythrocytes, Species: Mouse, Strain/Sex: ICR/Male, Route: Intraperitoneal inactive; negative | Test System: AMES SALMONELLA TYPHIMURIUM, Strain/Indicator: TA97, Metabolic Activation: HAMSTER, LIVER, S-9, AROCLOR 1254, 10%, Method: PREINCUBATION inactive; negative | Test System: AMES SALMONELLA TYPHIMURIUM, Strain/Indicator: TA97, Metabolic Activation: HAMSTER, LIVER, S-9, AROCLOR 1254, 30%, Method: PREINCUBATION inactive; negative | Test System: AMES SALMONELLA TYPHIMURIUM, Strain/Indicator: TA97, Metabolic Activation: NONE, Method: PREINCUBATION inactive; negative | Test System: AMES SALMONELLA TYPHIMURIUM, Strain/Indicator: TA97, Metabolic Activation: RAT, LIVER, S-9, AROCLOR 1254, 10%, Method: PREINCUBATION inactive; negative | Test System: AMES SALMONELLA TYPHIMURIUM, Strain/Indicator: TA97, Metabolic Activation: RAT, LIVER, S-9, AROCLOR 1254, 30%, Method: PREINCUBATION inactive; negative | Test System: AMES SALMONELLA TYPHIMURIUM, Strain/Indicator: TA97, Metabolic Activation: RAT, LIVER, S-9, PHENOBARBITAL AND 5,6-BENZOFLAVONE, Method: PREINCUBATION inactive; negative | Test System: AMES SALMONELLA TYPHIMURIUM, Strain/Indicator: TA98, Metabolic Activation: HAMSTER, LIVER, S-9, AROCLOR 1254, 10%, Method: PREINCUBATION inactive; negative | Test System: AMES SALMONELLA TYPHIMURIUM, Strain/Indicator: TA98, Metabolic Activation: HAMSTER, LIVER, S-9, AROCLOR 1254,(30%, Method: PREINCUBATION inactive; negative | [1] inactive; negative | Test System: AMES SALMONELLA TYPHIMURIUM, Strain/Indicator: TA98, Metabolic Activation: RAT, LIVER, S-9, AROCLOR 1254, 10%, Method: PREINCUBATION inactive; negative | Test System: AMES SALMONELLA TYPHIMURIUM, Strain/Indicator: TA98, Metabolic Activation: RAT, LIVER, S-9, AROCLOR 1254, 30%, Method: PREINCUBATION inactive; negative | Test System: AMES SALMONELLA TYPHIMURIUM, Strain/Indicator: TA98, Metabolic Activation: RAT, LIVER, S-9, PHENOBARBITAL AND 5,6-BENZOFLAVONE, Method: PREINCUBATION inactive; negative | Test System: AMES SALMONELLA TYPHIMURIUM, Strain/Indicator: TA100, Metabolic Activation: HAMSTER, LIVER, S-9, AROCLOR 1254, 10%, Method: PREINCUBATION inactive; negative | Test System: AMES SALMONELLA TYPHIMURIUM, Strain/Indicator: TA100, Metabolic Activation: HAMSTER, LIVER, S-9, AROCLOR 1254, 30%, Method: PREINCUBATION inactive; negative | [2] inactive; negative | Test System: AMES SALMONELLA TYPHIMURIUM, Strain/Indicator: TA100, Metabolic Activation: RAT, LIVER, S-9, AROCLOR 1254, 10%, Method: PREINCUBATION inactive; negative | Test System: AMES SALMONELLA TYPHIMURIUM, Strain/Indicator: TA100, Metabolic Activation: RAT, LIVER, S-9, AROCLOR 1254, 30%, Method: PREINCUBATION inactive; negative | Test System: AMES SALMONELLA TYPHIMURIUM, Strain/Indicator: TA100, Metabolic Activation: RAT, LIVER, S-9, PHENOBARBITAL AND 5,6-BENZOFLAVONE, Method: PREINCUBATION inactive; negative | Test System: AMES SALMONELLA TYPHIMURIUM, Strain/Indicator: TA102, Metabolic Activation: NONE, Method: PREINCUBATION inactive; negative | Test System: AMES SALMONELLA TYPHIMURIUM, Strain/Indicator: TA102, Metabolic Activation: RAT, LIVER, S-9, PHENOBARBITAL AND 5,6-BENZOFLAVONE, Method: PREINCUBATION inactive; negative | Test System: AMES SALMONELLA TYPHIMURIUM, Strain/Indicator: TA104, Metabolic Activation: NONE, Method: PREINCUBATION inactive; negative | Test System: AMES SALMONELLA TYPHIMURIUM, Strain/Indicator: TA104, Metabolic Activation: RAT, LIVER, S-9, PHENOBARBITAL AND 5,6-BENZOFLAVONE, Method: PREINCUBATION inactive; negative | Test System: AMES SALMONELLA TYPHIMURIUM, Strain/Indicator: TA1535, Metabolic Activation: HAMSTER, LIVER, S-9, AROCLOR 1254, 10%, Method: PREINCUBATION inactive; negative | Test System: AMES SALMONELLA TYPHIMURIUM, Strain/Indicator: TA1535, Metabolic Activation: HAMSTER, LIVER, S-9, AROCLOR 1254, 30%, Method: PREINCUBATION inactive; negative | [3] inactive; negative | Test System: AMES SALMONELLA TYPHIMURIUM, Strain/Indicator: TA1535, Metabolic Activation: RAT, LIVER, S-9, AROCLOR 1254 (10%), Method: PREINCUBATION inactive; negative | Test System: AMES SALMONELLA TYPHIMURIUM, Strain/Indicator: TA1535, Metabolic Activation: RAT, LIVER, S-9, AROCLOR 1254, 30%, Method: PREINCUBATION inactive; negative | Test System: Ames Salmonella typhimurium, Strain/Indicator: TA98, Metabolic Activation: None, Method: Preincubation inactive; negative | Test System: Ames Salmonella typhimurium, Strain/Indicator: TA98, Metabolic Activation: Rat, Liver, S-9, Aroclor 1254, Method: Preincubation inactive; negative | Test System: Ames Salmonella typhimurium, Strain/Indicator: TA100, Metabolic Activation: None, Method: Preincubation inactive; negative | Test System: Ames Salmonella typhimurium, Strain/Indicator: TA100, Metabolic Activation: Rat, liver, S-9, Aroclor 1254, Method: Preincubation inactive; negative | Test System: Ames Salmonella typhimurium, Strain/Indicator: TA102, Metabolic Activation: None, Method: Preincubation inactive; negative | Test System: Ames Salmonella typhimurium, Strain/Indicator: TA102, Metabolic Activation: Rat, liver, S-9, Aroclor 1254, Method: Preincubation inactive; negative | Test System: Ames Salmonella typhimurium, Strain/Indicator: TA1535, Metabolic Activation: None, Method: Preincubation inactive; negative | Test System: Ames Salmonella typhimurium, Strain/Indicator: TA1535, Metabolic Activation: Rat, liver, S-9, Aroclor 1254, Method: Preincubation inactive; negative | Test System: Ames Salmonella typhimurium, Strain/Indicator: TA1537, Metabolic Activation: None, Method: Preincubation inactive; negative | Test System: Ames Salmonella typhimurium, Strain/Indicator: TA1537, Metabolic Activation: Rat, liver, S-9, Aroclor 1254, Method: Preincubation inactive; negative

O=S1(=O)CCCC1
inactive: [1] inactive; negative | Test System: AMES SALMONELLA TYPHIMURIUM, Strain/Indicator: TA98, Metabolic Activation: RAT, LIVER, S-9, KC 500, Method: PREINCUBATION inactive; negative | [2] inactive; negative | Test System: AMES SALMONELLA TYPHIMURIUM, Strain/Indicator: TA100, Metabolic Activation: RAT, LIVER, S-9, KC 500, Method: PREINCUBATION inactive; negative | [3] inactive; negative | Test System: AMES SALMONELLA TYPHIMURIUM, Strain/Indicator: TA1535, Metabolic Activation: RAT, LIVER, S-9, KC 500, Method: PREINCUBATION inactive; negative | Test System: AMES SALMONELLA TYPHIMURIUM, Strain/Indicator: TA1537, Metabolic Activation: NONE, Method: PREINCUBATION inactive; negative | Test System: AMES SALMONELLA TYPHIMURIUM, Strain/Indicator: TA1537, Metabolic Activation: RAT, LIVER, S-9, KC 500, Method: PREINCUBATION inactive; negative | Test System: AMES SALMONELLA TYPHIMURIUM, Strain/Indicator: TA1538, Metabolic Activation: NONE, Method: PREINCUBATION inactive; negative | Test System: AMES SALMONELLA TYPHIMURIUM, Strain/Indicator: TA1538, Metabolic Activation: RAT, LIVER, S-9, KC 500, Method: PREINCUBATION inactive; negative | Test System: E. COLI, Strain/Indicator: WP2 UVRA, Metabolic Activation: NONE, Method: PREINCUBATION inactive; negative | Test System: E. COLI, Strain/Indicator: WP2 UVRA, Metabolic Activation: RAT, LIVER, S-9, KC 500, Method: PREINCUBATION inactive; negative
